Patent publication EP4678638A1, “NEW E3 UBIQUITIN LIGASE LIGAND, PROTEIN DEGRADATION AGENT AND USE THEREOF” (priority 2023, dated 2024)

Experiments:
H1975 = experiment: CCK-8 proliferation, NCI-H1975 (H1975); assay type: cell-based, Human; details: Homo sapiens, NCI-H1975; CCK-8; 96 hours; read-out: Inhibitory activity (IC50) on tumor cell proliferation, H1975
Procedure: The tumor cells used herein were cultured in a cell culture medium listed in table A1 at 37°C in an incubator with 5% CO2. Prior to experimentation, all cell lines used were correctly identified by STR profiling, and tested negative for mycoplasma contamination using a mycoplasma detection kit through routine screenings. Table A1. Tumor cells and cell culture medium used in the present disclosure
IC50 values of the compounds of the present disclosure (including the compounds in Table 1, and compounds of examples) were measured using the Meilun Cell Counting Kit-8 kit from Dalian Meilun Biotech Co., Ltd. Assay details are as follows: tumor cells were seeded in a 96-well plate at a density listed in Table A2. After 24h, 100 µL of the inoculated cells were treated with 0.5µL of the compounds of the present disclosure (including the compounds in Tables 1 and 2, and compounds of examples) at 10 different successively decreasing concentrations (starting at the highest concentration of 10µM; 5-fold serial dilutions). After the cells were treated with the compounds of the present disclosure for a period of time, the cell viability detection reagent was added to the culture medium for cell viability assessment according to the instructions provided with the CCK-8 kit. […] The growth inhibition of the compounds of the present disclosure on cells was plotted by Prism Graphpad software, and the IC50 values of the compounds of the present disclosure were calculated therefrom. […] Seeding protocol and treatment time for tumor cells

[1] = target: T1, human Cereblon WT GST-tagged protein (Homo sapiens, UniProt Q96SW2); experiment: CRBN binding, HTRF (CEREBLON BINDING kit); details: Table II-2, CRBN binding screening, HTRF; for inhibition at 0.5 µM: read-out: Inhibition rate (%) at 0.5µM; for inhibition at 2 µM: read-out: Inhibition rate (%) at 2 µM
T1 construct: purchased CISBIO 64BDCRBNPEH
T1 sequence (Q96SW2 whole entry): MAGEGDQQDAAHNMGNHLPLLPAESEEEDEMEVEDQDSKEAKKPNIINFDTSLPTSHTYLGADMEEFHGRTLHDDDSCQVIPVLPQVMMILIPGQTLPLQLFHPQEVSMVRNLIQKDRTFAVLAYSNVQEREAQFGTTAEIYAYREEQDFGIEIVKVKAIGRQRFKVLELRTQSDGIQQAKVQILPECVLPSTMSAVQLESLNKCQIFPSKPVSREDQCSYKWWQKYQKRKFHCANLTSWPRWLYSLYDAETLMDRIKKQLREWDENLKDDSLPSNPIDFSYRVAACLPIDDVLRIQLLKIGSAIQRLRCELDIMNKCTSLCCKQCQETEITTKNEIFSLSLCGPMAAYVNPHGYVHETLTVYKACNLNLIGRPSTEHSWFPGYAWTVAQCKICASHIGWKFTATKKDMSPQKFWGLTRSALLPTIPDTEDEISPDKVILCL
Summary of the method: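 After 3 h at room temperature, emission at 665 and 620 nm was measured in a homogeneous time-resolved fluorescence format. Compounds competed with a Thalidomide-Re probe for GST-tagged wild-type human CRBN, which was labelled with a Eu anti-GST antibody.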

| Compound | IC50 (H1975) [µM] | inhibition at 0.5 µM ([1]; at 0.5µM) [%] | inhibition at 2 µM ([1]; at 2 µM) [%] | other results |
| --- | --- | --- | --- | --- |
| O=C1CCN(c2ccc(CN3C4CCC3CN(c3ccc(-c5cc(F)c6c(c5)C(=O)N(C(C(=O)Nc5nccs5)c5ncn7c5CCC7)C6)cc3)C4)nc2)C(=O)N1 (centres unmarked) [GT-06255, 2-(6,7-dihydro-5H-pyrrolo[1,2-c]imidazol-1-yl)-2-(6-(4-(8-((5-(2,4-dioxotetrahydropyrimidin-1(2H)-yl)pyridin-2-yl)methyl)-3,8-diazabicyclo[3.2.1]octan-3-yl)phenyl)-4-fluoro-1-oxoisoindolin-2-yl)-N-(thiazol-2-yl)acetamide] | 0.001 to 0.01 |  |  |  |
| CNC(=O)c1ccccc1Nc1cc(Nc2cc(C)c(C3CCN(Cc4cc(C5CCC(=O)NC5=O)cnc4F)CC3)cc2OC(C)C)ncc1C(F)(F)F (centres unmarked) [GT-07675, 2-((2-((4-(1-((5-(2,6-dioxopiperidin-3-yl)-2-fluoropyridin-3-yl)methyl)piperidin-4-yl)-2-isopropoxy-5-methylphenyl)amino)-5-(trifluoromethyl)pyridin-4-yl)amino)-N-methylbenzamide] |  | 40 to 53 | 60 to 80 |  |
| CN(C)C(=O)c1cc2cnc(Nc3ccc(N4CCN(Cc5cc(C6CCC(=O)NC6=O)cnc5F)CC4)cn3)nc2n1C1CCCC1 (centres unmarked) [GT-07563, 7-cyclopentyl-2-((5-(4-((5-(2,6-dioxopiperidin-3-yl)-2-fluoropyridin-3-yl)methyl)piperazin-1-yl)pyridin-2-yl)amino)-N,N-dimethyl-7H-pyrrolo[2,3-d]pyrimidine-6-carboxamide] |  | 20 to 30 | 60 to 80 |  |
| CN(c1nccnc1CNc1nc(Nc2ccc(N3CCN(Cc4ccc(C5CCC(=O)NC5=O)cc4)CC3)cc2)ncc1C(F)(F)F)S(C)(=O)=O (centres unmarked) [GT-07399, N-(3-(((2-((4-(4-(4-(2,6-dioxopiperidin-3-yl)benzyl)piperazin-1-yl)phenyl)amino)-5-(trifluoromethyl)pyrimidin-4-yl)amino)methyl)pyrazin-2-yl)-N-methylmethanesulfonamide] |  | 10 to 20 | 60 to 80 |  |
| CC(C)(O)c1cc2nn(C3CCN(Cc4ccc(C5CCC(=O)NC5=O)cn4)CC3)cc2cc1NC(=O)c1cccc(C(F)(F)F)n1 (centres unmarked) [GT-07541, N-(2-(1-((5-(2,6-dioxopiperidin-3-yl)pyridin-2-yl)methyl)piperidin-4-yl)-6-(2-hydroxypropan-2-yl)-2H-indazol-5-yl)-6-(trifluoromethyl)picolinamide] |  | 40 to 53 | 60 to 80 |  |
| CNC(=O)c1ccccc1Nc1cc(Nc2cc(C)c(C3CCN(Cc4ccc(N5CCC(=O)NC5=O)cn4)CC3)cc2OC(C)C)ncc1C(F)(F)F [GT-07669, 2-((2-((4-(1-((5-(2,4-dioxotetrahydropyrimidin-1(2H)-yl)pyridin-2-yl)methyl)piperidin-4-yl)-2-isopropoxy-5-methylphenyl)amino)-5-(trifluoromethyl)pyridin-4-yl)amino)-N-methylbenzamide] |  | 10 to 20 | 53 to 60 |  |
| CNC(=O)c1ccccc1Nc1cc(Nc2cc(C)c(C3CCN(Cc4cccc(N5CCC(=O)NC5=O)c4)CC3)cc2OC(C)C)ncc1C(F)(F)F [GT-07668, 2-((2-((4-(1-(3-(2,4-dioxotetrahydropyrimidin-1(2H)-yl)benzyl)piperidin-4-yl)-2-isopropoxy-5-methylphenyl)amino)-5-(trifluoromethyl)pyridin-4-yl)amino)-N-methylbenzamide] |  |  |  | Inhibition rate (%) at 0.5µM ([1]; at 0.5µM): a2 (20% < a2 ≤ 30%); Inhibition rate (%) at 2 µM ([1]; at 2 µM): a5 (53% < a5 ≤ 60%) |
| COc1cc2nn(C3CCN(Cc4cncc(C5CCC(=O)NC5=O)c4)CC3)cc2cc1NC(=O)c1cccc(C(F)(F)F)n1 (centres unmarked) [GT-07536, N-(2-(1-((5-(2,6-dioxopiperidin-3-yl)pyridin-3-yl)methyl)piperidin-4-yl)-6-methoxy-2H-indazol-5-yl)-6-(trifluoromethyl)picolinamide] |  | 10 to 20 | 53 to 60 |  |
| Cn1cc(-c2cc(S(C)(=O)=O)ccc2OCc2ccc(C3CCC(=O)NC3=O)c(F)c2)c2cc[nH]c2c1=O (centres unmarked) [GT-04640, 3-(2-fluoro-4-((2-(6-methyl-7-oxo-6,7-dihydro-1H-pyrrolo[2,3-c]pyridin-4-yl)-4-(methylsulfonyl)phenoxy)methyl)phenyl)piperidine-2,6-dione] |  | 60 to 80 | 80 to 100 |  |
| O=C1CCN(c2cnc(CN3CCN(c4ccc(-c5cc(F)c6c(c5)C(=O)N(C(C(=O)Nc5nccs5)c5ncn7c5CCC7)C6)cc4)CC3)cn2)C(=O)N1 (centres unmarked) [GT-07761, 2-(6,7-dihydro-5H-pyrrolo[1,2-c]imidazol-1-yl)-2-(6-(4-(4-((5-(2,4-dioxotetrahydropyrimidin-1(2H)-yl)pyrazin-2-yl)methyl)piperazin-1-yl)phenyl)-4-fluoro-1-oxoisoindolin-2-yl)-N-(thiazol-2-yl)acetamide] |  | 20 to 30 | 53 to 60 |  |
| COc1cc2nn(C3CCN(Cc4cc(N5CCC(=O)NC5=O)cnc4F)CC3)cc2cc1NC(=O)c1cccc(C(F)(F)F)n1 [GT-07799, N-(2-(1-((5-(2,4-dioxotetrahydropyrimidin-1(2H)-yl)-2-fluoropyridin-3-yl)methyl)piperidin-4-yl)-6-methoxy-2H-indazol-5-yl)-6-(trifluoromethyl)picolinamide] |  | 20 to 30 | 60 to 80 |  |
| Cc1ccc(C(=O)Nc2ccc(N3CCC(N(C)Cc4ccc(C5CCC(=O)NC5=O)cc4)CC3)c(C(F)(F)F)c2)cc1C#Cc1cnc2cccnn12 (centres unmarked) [GT-04106, N-(4-(4-((4-(2,6-dioxopiperidin-3-yl)benzyl)(methyl)amino)piperidin-1-yl)-3-(trifluoromethyl)phenyl)-3-(imidazo[1,2-b]pyridazin-3-ylethynyl)-4-methylbenzamide] |  | 40 to 53 | 60 to 80 |  |

Further lines, with some results ahead:

| IC50 (H1975) [µM] | inhibition at 0.5 µM ([1]; at 0.5µM) [%] | inhibition at 2 µM ([1]; at 2 µM) [%] | Compound | other results |
| --- | --- | --- | --- | --- |
| 0.001 to 0.01 |  |  | CN(Cc1cccnc1NC1CCC(=O)NC1=O)C1CCN(c2ccc(-c3cc(F)c4c(c3)C(=O)N(C(C(=O)Nc3nccs3)c3ncn5c3CCC5)C4)cc2)CC1 (centres unmarked) [GT-07561, 2-(6,7-dihydro-5H-pyrrolo[1,2-c]imidazol-1-yl)-2-(6-(4-(4-(((2-((2,6-dioxopiperidin-3-yl)amino)pyridin-3-yl)methyl)(methyl)amino)piperidin-1-yl)phenyl)-4-fluoro-1-oxoisoindolin-2-yl)-N-(thiazol-2-yl)acetamide] |  |
| 0.01 to 0.05 |  |  | CN(Cc1cc(N2CCC(=O)NC2=O)ncc1F)C1CCN(c2ccc(-c3cc(F)c4c(c3)C(=O)N(C(C(=O)Nc3nccs3)c3ncn5c3CCC5)C4)cc2)CC1 (centres unmarked) [GT-07382, 2-(6,7-dihydro-5H-pyrrolo[1,2-c]imidazol-1-yl)-2-(6-(4-(4-(((2-(2,4-dioxotetrahydropyrimidin-1(2H)-yl)-5-fluoropyridin-4-yl)methyl)(methyl)amino)piperidin-1-yl)phenyl)-4-fluoro-1-oxoisoindolin-2-yl)-N-(thiazol-2-yl)acetamide] |  |
| 0.01 to 0.05 |  |  | O=C1CCC(c2cnc(F)c(CN3C[C@H]4C[C@@H]3CN4c3ccc(-c4cc(F)c5c(c4)C(=O)N(C(C(=O)Nc4nccs4)c4ncn6c4CCC6)C5)cc3)c2)C(=O)N1 (stereo partly drawn) [GT-07562, 2-(6,7-dihydro-5H-pyrrolo[1,2-c]imidazol-1-yl)-2-(6-(4-((1R,4R)-5-((5-(2,6-dioxopiperidin-3-yl)-2-fluoropyridin-3-yl)methyl)-2,5-diazabicyclo[2.2.1]heptan-2-yl)phenyl)-4-fluoro-1-oxoisoindolin-2-yl)-N-(thiazol-2-yl)acetamide] |  |
| 0.01 to 0.05 |  |  | O=C1CCC(Nc2cccc(CN3C[C@H]4C[C@@H]3CN4c3ccc(-c4cc(F)c5c(c4)C(=O)N(C(C(=O)Nc4nccs4)c4ncn6c4CCC6)C5)cc3)c2)C(=O)N1 (stereo partly drawn) [GT-06179, 2-(6,7-dihydro-5H-pyrrolo[1,2-c]imidazol-1-yl)-2-(6-(4-((1R,4R)-5-(3-((2,6-dioxopiperidin-3-yl)amino)benzyl)-2,5-diazabicyclo[2.2.1]heptan-2-yl)phenyl)-4-fluoro-1-oxoisoindolin-2-yl)-N-(thiazol-2-yl)acetamide] |  |
| 0.001 to 0.01 |  |  | O=C1CCC(c2cc(CN3CCN(c4ccc(-c5cc(F)c6c(c5)C(=O)N(C(C(=O)Nc5nccs5)c5ncn7c5CCC7)C6)cc4)CC3)ccn2)C(=O)N1 (centres unmarked) [GT-07392, 2-(6,7-dihydro-5H-pyrrolo[1,2-c]imidazol-1-yl)-2-(6-(4-(4-((2-(2,6-dioxopiperidin-3-yl)pyridin-4-yl)methyl)piperazin-1-yl)phenyl)-4-fluoro-1-oxoisoindolin-2-yl)-N-(thiazol-2-yl)acetamide] |  |
| 0.001 to 0.01 |  |  | CN(Cc1ccc(C2CCC(=O)NC2=O)cc1)C1CCN(c2ccc(-c3cc(F)c4c(c3)C(=O)N(C(C(=O)Nc3nccs3)c3ncn5c3CCC5)C4)cc2)CC1 (centres unmarked) [GT-05218, 2-(6,7-dihydro-5H-pyrrolo[1,2-c]imidazol-1-yl)-2-(6-(4-(4-((4-(2,6-dioxopiperidin-3-yl)benzyl)(methyl)amino)piperidin-1-yl)phenyl)-4-fluoro-1-oxoisoindolin-2-yl)-N-(thiazol-2-yl)acetamide] |  |
